Reference: patent publication US9585885B2, “Substituted pyrido[2,3-g]quinazolines as dopamine D2 receptor agonists” (KISSEI PHARMACEUTICAL CO., LTD., priority 2012, dated 2017)

Key:
[1] = tested on: unilateral 6-hydroxydopamine-lesioned hemi-Parkisonian rats; assay: Contralateral rotational behavior in unilateral 6-hydroxydopamine-lesioned hemi-parkinsonian rats; type: in vivo, rat; details: orally 10 mg/kg, mean value; for Total number of rotations: contralateral rotations up to 24 hours after administration; for Duration: measured up to 24 hours after administration, duration of rotational response
Description: 6-OHDA was dissolved at 2 mg/mL in a physiolosical saline solution containing 0.2% L-ascorbic acid. Desipramine was dissolved at 10 mg/mL in a physiolosical saline solution in a hot-water bath. Apomorphine was dissolved at 0.1 mg/mL in a physiolosical saline solution. Ropinirole was dissolved in distilled water. Test compounds were dissolved in a solution containing 2% DMA, 100 or 200 mol % hydrochloric acid, and 98% of a 0.5% methyl cellulose solution. […] (Eur J Pharmacol, 2000, vol. 408, P. 249-255) with a minor modification. Male Sprague-Dawley rats (6-weeks-old, Charles River Laboratories Japan Inc.) were anaesthetized with intraperitoneal somnopentyl (45 mg/kg) injection and placed in a stereotaxic frame (Narishige). In order to prevent 6-OHDA-induced damage of noradrenergic neurons, desipramine (25 mg/kg) was intraperitoneally injected 30 minutes before the 6-OHDA injection. After the bregma identification via a middle calvarial incision, the skull was drilled using a dental drill at the site of 6-OHDA injection. The lesion was made by injecting 6-OHDA (8 μg in 4 μL at a speed of 1 μL/minute) unilaterally into the left medial forebrain bundle by using a injection cannula (30 gauge needle) connected to a microsyringe (Hamilton) (the lesion coordinates; A/P −2.5 mm, L/M −1.8 mm, and V/D −8.0 mm, from the bregma point and surface of the skull). The cannula was carefully removed from the animal after keeping placed on the lesion site for 5 minutes. The skull was filled its hole with dental cement, disinfected, and the scalp incision was surgically sutured. Animals recovered from anesthesia were housed as usual until the day of the experiment. Three weeks after the lesion, rats were tested on the basis of their contralateral rotational behavior (single rotation was defined as a 360° turn) in response to 0.1 mg/kg apomorphine given subcutaneously. For behavioral observation, rats were placed in plastic cylinders of a diameter of 30 cm, and its contralateral rotational behaviors were videotaped and quantified by rat-rotation auto counting system R-RACS (Kissei Wellcom). On the experimental day, animals were fasted overnight, and test compounds were orally administrated at doses of 10 mg/kg. The drug potency was measured until up to 24 hours after administration as the number of contralateral rotation. […] Total number of rotations and the duration of the response in experimental period were presented as mean value. As comparative example, ropinirole as non-ergot dopamine D2 receptor agonist, was examined in a similar fashion.

[2] = target: T1, human dopamine D2 receptor (Homo sapiens, UniProt P14416); assay: Stimulating activities of human dopamine D2 receptor, [35S]GTPγS binding to hD2R#7 (HEK293) membrane homogenates; type: biochemical; details: [35S]GTPγS binding, membrane homogenates, mean value (n=2); read-out: EC50
T1 construct: expressed in transfected cells
T1 sequence (P14416 whole entry): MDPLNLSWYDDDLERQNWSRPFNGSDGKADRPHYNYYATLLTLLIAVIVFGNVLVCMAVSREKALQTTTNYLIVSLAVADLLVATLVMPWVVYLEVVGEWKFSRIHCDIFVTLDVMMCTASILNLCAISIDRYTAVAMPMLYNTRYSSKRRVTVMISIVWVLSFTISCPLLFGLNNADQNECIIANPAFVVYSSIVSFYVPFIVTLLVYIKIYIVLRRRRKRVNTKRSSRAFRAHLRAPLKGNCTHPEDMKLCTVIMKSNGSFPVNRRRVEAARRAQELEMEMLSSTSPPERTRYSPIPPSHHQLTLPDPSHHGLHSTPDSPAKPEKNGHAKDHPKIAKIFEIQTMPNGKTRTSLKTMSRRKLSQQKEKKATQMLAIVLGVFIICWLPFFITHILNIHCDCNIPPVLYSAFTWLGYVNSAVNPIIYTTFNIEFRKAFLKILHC
Description: Identification Test of Stimulating Activities on Human Dopamine D2 Receptor
The cells, which were grown to confluence in 150 mm dishes (IWAKI), were harvested with isotonic buffer (50 mM Tris (Sigma), 2 mM ethylenediamine-tetraacetic acid (Invitrogen), and 125 mM sodium chloride (Wako Pure Chemicals), pH 7.4) and centrifuged at 1880×g and 4° C. for 10 minutes, and the cell pellets were then suspended in isotonic buffer. After being subjected to one cycle of freezing and thawing, the cells were centrifuged at 1880×g and 4° C. for 10 minutes, and the cell pellets were suspended in isotonic buffer. The cells were centrifuged at 1880×g and 4° C. for 10 minutes, and the cell pellets were suspended in isotonic buffer and homogenate buffer (10 mM sodium bicarbonate (Nacalai) and 5 mM ethylenediamine-tetraacetic acid, pH 7.5). The volume ratio of isotonic-to-homogenate buffer was 2. The cells were sonicated and centrifuged at 1880×g and 4° C. for 10 minutes, and the supernatants were ultracentrifuged at 80000×g and 4° C. for 30 minutes. The final cell pellets were suspended in homogenate buffer containing protease inhibitor cocktail (Nacalai) and stored at −80° C. until use. The protein concentration was determined using BCA Protein Assay Kit (Pierce) in accordance with the manufacturer's instructions.
The stimulating activities of human dopamine D2 receptor was determined by measuring the binding potential of [^35S]-guanosine 5′-[gamma-thio]triphosphate ([^35S]GTPγS, PerkinElmer) according to the method described by Newman-Tancredi A. et al. (Naunyn-Schmiedeberg's Arch Pharmacol, 1999, vol. 359, pp. 447-453) with a minor modification. Test compounds and dopamine hydrochloride (Fluka) as positive control were dissolved in dimethyl sulfoxide (CARLBIOCHEM), resulting in 30 mM. The both compounds were diluted with assay buffer (50 mM Tris, 100 mM sodium chloride, 5 mM magnesium chloride (Nacalai), 1 mM ethylenediamine-tetraacetic acid, 1 mM dithiothreitol (Wako Pure Chemicals), 10 μM guanosine diphosphate (Wako Pure Chemicals) and 0.5% bovine serum albumin (Sigma), pH 7.4) to a final concentration of 100 pM (only test compounds), 1 nM, 10 nM, 100 nM, 1 μM, 10 μM and 100 μM (only dopamine hydrochloride). The above membrane homogenates and [^35S]GTPγS were diluted with assay buffer to a final concentration of 0.06 mg/mL and 0.6 nM, respectively. The serial diluted compounds (50 μL), the diluted membrane homogenates (50 μL) and the diluted [^35S]GTPγS (50 μL) were mixed on multi-screen 96-well plate (Millipore) and shaken lightly at room temperature for 60 minutes. The reaction was terminated by vacuum filtration with three times washes of ice-cold wash buffer (50 mM Tris, 100 mM sodium chloride, 5 mM magnesium chloride, and 1 mM ethylenediamine-tetraacetic acid, pH 7.4). After drying the bottoms of the plate at 60° C., MicroScinti-40 (PerkinElmer) (30 μL) was added in the plate. The tops of the plate were sealed by TopSeal-A (PerkinElmer), and the radioactivity was determined in a TopCount NXT (registered mark)(PerkinElmer) after shaking lightly for 5-10 minutes. The data was analyzed by nonlinear regression and sigmoidal dose-response curve fitting using GraphPad PRISM 4.0 (GraphPad Software), and values of EC50 (concentration of the compound producing half the maximal effect of the compound) were calculated. The data was presented as mean value (n=2).

[3] = target: T2, human serotonin 5-HT2B receptor (Homo sapiens, UniProt P41595); assay: Stimulating activities of human serotonin 5-HT2B receptor, intracellular calcium in forced expression HEK293 cells; type: cell-based; details: intracellular calcium concentration, mean value (n=2)
T2 construct: expressed in transfected cells; host or cells: HEK293 (transient transfection)
T2 sequence (P41595 whole entry): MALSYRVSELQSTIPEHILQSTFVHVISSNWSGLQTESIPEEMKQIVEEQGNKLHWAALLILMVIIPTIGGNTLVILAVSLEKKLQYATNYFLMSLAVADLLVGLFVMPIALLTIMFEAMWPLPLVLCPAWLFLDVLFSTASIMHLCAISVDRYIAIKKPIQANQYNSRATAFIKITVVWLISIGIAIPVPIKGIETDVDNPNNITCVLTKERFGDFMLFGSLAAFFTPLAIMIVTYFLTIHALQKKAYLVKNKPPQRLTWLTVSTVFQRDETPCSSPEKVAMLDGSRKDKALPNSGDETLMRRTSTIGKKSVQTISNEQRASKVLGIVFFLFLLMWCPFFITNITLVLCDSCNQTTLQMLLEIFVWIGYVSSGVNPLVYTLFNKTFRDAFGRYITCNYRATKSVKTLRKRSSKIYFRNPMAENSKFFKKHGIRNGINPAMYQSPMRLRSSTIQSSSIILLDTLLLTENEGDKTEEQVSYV
Description: Identification Test of Stimulating Activities on Human Serotonin 5-HT2B Receptor
Mostly confluent HEK293 cells were washed with PBS, followed by exfoliation with 0.05% trypsin-EDTA and the cells were suspended in D-MEM liquid medium (phenol red-free, low glucose, pyruvic acid were contained) containing fetal bovine serum (final concentration: 10%) and GlutaMax (registered mark) I (final concentration: 2 mM). The suspension was scattered at 5×10^4 cells/100 μL/well on poly-D-lysine-coated 96-well microplate (BD BioCoat (registered mark)). The scattered cells were cultured in 5% CO2 incubator at 37° C. Human serotonin 5-HT2B receptor expression plasmid was transfected in that cells according to the procedure seeing below.
Human serotonin 5-HT2B receptor expression plasmid and Lipofectamine (registered mark) 2000 (Invitrogen) were diluted to 0.008 g/L and 0.016 g/L each other with OPTI-MEM (registered mark) I Reduced-Serum Medium and incubated at room temperature. After incubation, the human serotonin 5-HT2B receptor expression plasmid-diluted liquid and Lipofectamine (registered mark) 2000-diluted liquid were mixed at an equal volume and incubated at room temperature to form a complex. The complex was dispensed at 50 μL/well on the cells prepared above. The cells were incubated in 5% CO2 incubator at 37° C. for 2 days. After incubation, the cells were used as human serotonin 5-HT2B receptor forced expression cells for measurement of intracellular calcium concentration.
The stimulating activities of human serotonin 5-HT2B receptor was determined by measuring of intracellular calcium concentration. The 30 mM dimethyl sulfoxide (DMSO) solution contained test compounds or serotonin hydrochloride (Sigma) as positive control, was diluted with assay buffer ((HBSS), 20 mM HEPES, 1.3 mM calcium chloride, 0.5 mM magnesium chloride and 0.4 mM magnesium sulfate were contained, pH7.4) to appropriate concentration.
The forced expression cells were washed with assay buffer, and 100 μL/well of fluorescent calcium indicator (Fluo-4 NW Calcium Assay Kit) was added and incubated in 5% CO2 incubator at 37° C. After incubation, 50 μL/well of each test compound was added, and the concentration of intracellular calcium was measured as fluorescent signal with FlexStation (registered mark) II (Molecular Devices). The data was analyzed by nonlinear regression and sigmoidal dose-response curve fitting using GraphPad PRISM 4.0, and values of EC50 (concentration of the compound producing half the maximal effect of the compound) were calculated. The data was presented as mean value (n=2).

## CCCN(CCN(C)C)C(=O)N[C@H]1C[C@@H]2Cc3nc(N)ncc3C[C@H]2N(CCC)C1 [Compound 1-2, 3-[(5aR,8S,9aR)-2-amino-6-propyl-5,5a,6,7,8,9,9a,10-octahydropyrido[2,3-g]quinazolin-8-yl]-1-[2-(dimethylamino)ethyl]-1-propylurea]
[1]
  Total number of rotations: 2580.0
  Duration: 307.5 minuets
[2]
  EC50: 252 nM
[3]
  EC50: > 10000 nM

## CCCN1C[C@@H](NC(=O)N(C)CCN(CC)CC)C[C@@H]2Cc3nc(N)ncc3C[C@H]21 [Compound 1-4, 3-[(5aR,8S,9aR)-2-amino-6-propyl-5,5a,6,7,8,9,9a,10-octahydropyrido[2,3-g]quinazolin-8-yl]-1-[2-(diethylamino)ethyl]-1-methylurea]
[1]
  Total number of rotations: 3975.0
  Duration: 538.8 minuets
[2]
  EC50: 111 nM
[3]
  EC50: > 10000 nM
